Results on 103 molecules are retold here after PubChem BioAssay AID1996.

Converted amounts (≈) assume the structure as drawn.

The conditions of the series: buffer; pH 7.4; 200.0 µM.
For orientation: kinetic solubility means the concentration staying in solution when a stock, usually in DMSO, is diluted into the medium. Molecule `COc1ccc(Nc2nc(OC)nc(N3CCOCC3)n2)cc1` came in with a solubility (kinetic) of 21.8 µg/mL (≈ 68.7 µM). As for `CCOc1ccc(OCC)c(S(=O)(=O)NCc2ccccc2)c1`, the figure is 40.7 µg/mL (≈ 121 µM); as for `COC(=O)c1ccc(N=CC2=C(O)CC(c3ccccc3)CC2=O)cc1` (stereo not drawn), 2.1 µg/mL (≈ 6.01 µM); as for `CC(=O)c1ccc(NC(=O)C2CC2c2ccccc2)cc1` (stereo not drawn), 9.4 µg/mL (≈ 33.7 µM). `Brc1cc(Br)cc(CN2CCSCC2)c1`: the solubility (kinetic) is under 0.8 µg/mL. `Cc1nc([N+](=O)[O-])cn1CC(=O)Nc1ccc(F)c(Cl)c1` yielded a kinetic solubility of 1.2 µg/mL (≈ 3.84 µM). Molecule `CCN(CC)c1nc(N2CCOCC2)nc2ccccc12.Cl` showed a kinetic solubility of 42.8 µg/mL. For `CC(NC(=O)C12CC3CC(CC(O)(C3)C1)C2)c1ccccc1` (stereo not drawn), the solubility (kinetic) is over 44.9 µg/mL. In turn, `CC(C)CCn1cnc2c(oc3nc4c(cc32)CCCC4)c1=O` yielded a kinetic solubility of 43 µg/mL (≈ 138 µM).

In the case of `O=C(/C=C/C(=O)NCc1cccs1)NCc1cccs1`, the solubility (kinetic) is 0.6 µg/mL (≈ 1.96 µM). For the molecule `O=C(COC(=O)CCC1CCCC1)Nc1ccc(F)cc1Cl`, the solubility (kinetic) was found to be 3.4 µg/mL (≈ 10.4 µM). `Cc1ccc(F)cc1NC(=O)N1c2ccccc2NC(=O)CC1C` (stereo not drawn): the kinetic solubility worked out at 42.7 µg/mL (≈ 130 µM). As for `O=C(NCCCSc1ccccc1)c1ccc(=O)[nH]c1`, the figure is over 43.3 µg/mL; as for `Cc1cccc2nc(-c3ccco3)oc(=O)c12`, 21.6 µg/mL (≈ 95.1 µM). As for `O=S(=O)(c1cccc2cccc(Cl)c12)N1CCCC1`, the solubility (kinetic) was 15 µg/mL (≈ 50.7 µM).

For `Cc1ccc(N(CC(=O)NC(C)(C)C)C(=O)CCC(=O)Nc2nccs2)cc1C`, the solubility (kinetic) came to 12.2 µg/mL (≈ 29.3 µM).

Consider `CC1CC(C#N)N(N(C)C)C1=C(C#N)C#N` (stereo not drawn), for which the solubility (kinetic) is over 32.3 µg/mL. As for `CC(=O)c1cccc(NC(=O)c2ccc3c(c2)OCO3)c1`, the figure is 2.2 µg/mL (≈ 7.77 µM); as for `O=C(COC(=O)c1cnccn1)c1ccc(Cl)cc1`, 38.4 µg/mL (≈ 139 µM).

With `N#Cc1cc2cc3ccccc3nc2n2c(=O)c3ccccc3nc12`, the kinetic solubility was under 0.2 µg/mL. In the case of `Cn1c(=O)c2c(nc(SCc3ccccc3F)n2C)n(C)c1=O` it was 6.2 µg/mL (≈ 18.5 µM); in that of `Cc1ccc(C)c(SCC(=O)NC2CCS(=O)(=O)C2)c1` (stereo not drawn), over 47 µg/mL. `COc1ccc(OCCCC(=O)Nc2nccs2)cc1` displayed a solubility (kinetic) of over 43.9 µg/mL. With `CC(=O)N1CCN(S(=O)(=O)c2ccc(C)cc2)C1C` (stereo not drawn), the solubility (kinetic) is over 42.4 µg/mL. `Nc1c(C(=O)Nc2ccccc2)sc2ncc([N+](=O)[O-])cc12` displayed a solubility (kinetic) of under 0.2 µg/mL.

On to `O=C(Nc1cccnc1)c1cc(-c2ccccc2O)on1`, for which the kinetic solubility worked out at 1.3 µg/mL (≈ 4.62 µM). Consider `O=C(NC1CCCC(C(F)(F)F)C1)c1ccc([N+](=O)[O-])o1` (stereo not drawn), for which the kinetic solubility is over 45.9 µg/mL.

`O=C(NC1=NCCS1)c1ccc(Cl)c(Cl)c1` gave a kinetic solubility of 0.9 µg/mL (≈ 3.27 µM). Take `CC(=O)c1cn(-c2ccc([N+](=O)[O-])cc2)c(=O)n(C)c1=O`: the solubility (kinetic) is over 43.4 µg/mL. The molecule `Cc1ccc2nc(NC(=O)CC3Oc4ccccc4NC3=O)sc2c1` (stereo not drawn) registered a kinetic solubility of 3.8 µg/mL (≈ 10.8 µM).

Turning to `O=C(COC(=O)/C=C/c1ccc(C(F)(F)F)cc1)NCCC1=CCCCC1`, the solubility (kinetic) worked out at 4.3 µg/mL (≈ 11.3 µM).

For the molecule `CC(=O)N1CC(=O)Nc2ccc(C)cc2C1c1ccccc1` (stereo not drawn), the kinetic solubility was over 44.2 µg/mL.

As to `Cl.c1ccc(CCNCc2cccnc2)cc1`, the solubility (kinetic) was 35.3 µg/mL.

In the case of `CC1(C)OC(=O)C(=NNc2ccccc2C(=O)O)C(=O)O1`, the solubility (kinetic) was over 43.8 µg/mL. In the case of `CCN(CC)c1ccc(/C=C(/C#N)C(=O)NC(C)C)o1`, the solubility (kinetic) amounted to 38.6 µg/mL (≈ 140 µM). Turning to `NC(=O)c1cccc(CS(=O)(=O)c2ccc(Cl)cc2)c1`, the solubility (kinetic) stood at 16.4 µg/mL (≈ 52.9 µM). Take `CCN(CC)S(=O)(=O)c1ccc(N2CCOCC2)c(NC(=O)c2[nH]c(C)c(C(C)=O)c2C)c1`: the solubility (kinetic) worked out at 3.9 µg/mL (≈ 8.18 µM). `CC(=O)Nc1ccc(C(=O)OCc2ccccc2Br)cc1` gave a kinetic solubility of under 0.7 µg/mL. `CCOc1ccc(C(C)=O)cc1COc1cccnc1[N+](=O)[O-]` showed a kinetic solubility of 6 µg/mL (≈ 19 µM).

In turn, `O=C(O)c1ccc(OCCN2CCCC2=O)cc1` came in with a kinetic solubility of 27.6 µg/mL (≈ 111 µM). As for `CC1=C(Nc2ccc(C(=O)O)cc2)C(=O)c2ccccc2C1=O`, the figure is over 46.1 µg/mL. In the case of `COc1ccccc1Nc1c2c(nc3ccccc13)CCC2` it was 37.4 µg/mL (≈ 129 µM).

In turn, `COC(=O)c1onc(-c2c(Cl)cccc2Cl)c1C(=O)OC` displayed a solubility (kinetic) of 41.2 µg/mL (≈ 125 µM). In turn, `COCCOC(=O)C1=C(C)NC2(O)c3ccccc3C(=O)C12O` (stereo not drawn) showed a solubility (kinetic) of over 47.9 µg/mL.

As to `NC(=O)C1CC12c1ccccc1-c1ccccc12` (stereo not drawn), the kinetic solubility came out at 22 µg/mL (≈ 93.5 µM).

Turning to `Cn1c(N)c(C(=O)COC(=O)C2CCCC2)c(=O)n(C)c1=O`, the solubility (kinetic) was over 46.4 µg/mL.

Molecule `CC1CC(Nc2ccccc2)c2ccccc2N1C(=O)c1ccco1` (stereo not drawn) showed a kinetic solubility of 13.2 µg/mL (≈ 39.7 µM).

Take `N#Cc1ccc(OCC(O)CS(=O)(=O)c2ccccc2)cc1` (stereo not drawn): the solubility (kinetic) was found to be 46.6 µg/mL (≈ 147 µM). On to `O=C(NNC(=O)c1ccncc1)Nc1cccc([N+](=O)[O-])c1`, for which the kinetic solubility is over 45.2 µg/mL. In the case of `Cc1cccc(Nc2nc(-c3sc(C)nc3C)cs2)c1` it was 0.2 µg/mL (≈ 0.663 µM); in that of `COc1ccc(Nc2nc(N)c([N+](=O)[O-])c(NCc3ccccc3)n2)cc1`, under 0.1 µg/mL.

`Cn1c(=O)c([N+](=O)[O-])c(N2CCSCC2)c2ccccc21`: the solubility (kinetic) is 2.2 µg/mL (≈ 7.2 µM).

`Cc1cccc(OC(C)C(=O)Nc2nc(-c3ccncc3)cs2)c1` (stereo not drawn) gave a solubility (kinetic) of 3.4 µg/mL (≈ 10 µM). Consider `N#CC(C#N)=C(N)Nc1cccc(Cl)c1`, for which the kinetic solubility stood at 30.7 µg/mL (≈ 140 µM). `COc1ccc(C(=O)CSc2nc3ncccc3[nH]2)cc1OC` gave a solubility (kinetic) of 13.4 µg/mL (≈ 40.7 µM).

Regarding `CCc1ccc2nc(N3CCN(C(=O)C(C)(C)C)CC3)sc2c1`, the kinetic solubility stood at 2 µg/mL (≈ 6.03 µM). `O=C1CC(c2ccccc2)CC(=O)C1=CN1CCCC1` (stereo not drawn) had a solubility (kinetic) of over 40.4 µg/mL. As for `Cc1cc(C)c(O)c(NC(=S)NC(=O)Cc2ccccc2)c1`, the figure is 3.9 µg/mL (≈ 12.4 µM); as for `O=Cc1c(-c2ccccc2)nc2ccccn12`, over 33.3 µg/mL.

Consider `O=S(=O)(c1ccc(-c2ccccc2)cc1)N1CCCCC1`, for which the solubility (kinetic) was under 0.6 µg/mL. As to `CCCN(CC(=O)Nc1ccc(Cl)cc1Cl)C(=O)c1ccc(=O)[nH]c1`, the kinetic solubility is over 57.3 µg/mL. Turning to `N#C/C(=C/c1ccc(O)cc1)C(=O)NCc1ccc(Cl)cc1`, the kinetic solubility stood at 4.3 µg/mL (≈ 13.7 µM). For `CCOC(=O)C1CCN(C(=O)C2COc3ccccc3O2)CC1` (stereo not drawn), the solubility (kinetic) was 32.3 µg/mL (≈ 101 µM).

As for `CCCc1cc(NCCCO)n2c(nc3ccccc32)c1C#N`, the kinetic solubility stood at 3.3 µg/mL (≈ 10.7 µM). In the case of `CCOC(=O)Cc1csc(NC(=O)Cc2ccc(Cl)cc2)n1` it was 5.5 µg/mL (≈ 16.2 µM); in that of `Cc1cc([N+](=O)[O-])nn1CC(=O)N(C)C1CCCCC1`, over 42 µg/mL.

Turning to `Cc1ccsc1/C=N/NC(=O)C1CC(=O)N(c2ccc(F)cc2)C1` (stereo not drawn), the kinetic solubility was over 51.8 µg/mL. In turn, `Cc1ccc(N=C2NC(=O)/C(=C/c3cccnc3)S2)cc1C` came in with a kinetic solubility of under 0.2 µg/mL.

Regarding `Cc1ccc(C)c(OCCCN2CCNCC2)c1.Cl`, the kinetic solubility was found to be 39.3 µg/mL. As for `CN(Cc1ccccc1)C(=O)COC(=O)CCC(=O)c1ccc(F)cc1`, the figure is 14.8 µg/mL (≈ 41.4 µM). Molecule `Cc1ccc(NC(=O)C(C)NC(=O)OCc2ccccc2)cc1C` (stereo not drawn) returned a kinetic solubility of 2.4 µg/mL (≈ 7.35 µM). `CCCCn1c(N)c(N(CC)C(=O)c2ccco2)c(=O)[nH]c1=O` yielded a kinetic solubility of over 48.1 µg/mL.

`Cc1cc(C)cc(NC(=O)Nc2ccc3c(c2)CCC3)c1`: the kinetic solubility is under 0.3 µg/mL. With `COc1cc2c(cc1OC)CN(C(=O)c1ccco1)CC2`, the solubility (kinetic) is over 43.1 µg/mL. `Cc1ccccc1NC(=O)C1COc2ccccc2O1` (stereo not drawn): the solubility (kinetic) was 32.6 µg/mL (≈ 121 µM). On to `COc1ccc(C(=O)Nc2cc(C)nn2-c2ccc(C)cc2)cc1`, for which the kinetic solubility is over 48.2 µg/mL. As for `Cc1ccccc1OCC(=O)O/N=C(\N)c1ccncc1`, the figure is 28.7 µg/mL (≈ 101 µM). Regarding `O=C(Nc1ccc(Cl)c(S(=O)(=O)N2CCOCC2)c1)C1CCCC1`, the solubility (kinetic) is over 55.9 µg/mL. In turn, `Cc1ccccc1SCC(=O)NCC(c1ccc(F)cc1)N1CCOCC1` (stereo not drawn) yielded a solubility (kinetic) of over 58.3 µg/mL. `CC1(C)Cc2ccccc2C(NN=C2CCCC2)=N1` came in with a kinetic solubility of over 38.3 µg/mL.

With `CC(C(=O)Nc1ccc(OCc2ccccc2)cc1)N1CCCC1` (stereo not drawn), the solubility (kinetic) is over 48.7 µg/mL. In turn, `NC(=O)C1CCN(CC(O)CSc2ccc(F)cc2)CC1` (stereo not drawn) showed a solubility (kinetic) of 37.3 µg/mL (≈ 119 µM). On to `CCOC(=O)C1=C(C)NC(C)=C(C(=O)OC)C1c1ccco1` (stereo not drawn), for which the solubility (kinetic) turned out to be 34.1 µg/mL (≈ 112 µM). Molecule `Cc1ccc(S(=O)(=O)Nc2ccc(Cl)cn2)cc1C` had a solubility (kinetic) of 3.4 µg/mL (≈ 11.5 µM). As for `CCOc1ccc(-n2cnc3sc4c(c3c2=O)CCCC4)cc1`, the solubility (kinetic) was found to be 0.8 µg/mL (≈ 2.45 µM). Molecule `CN(c1ccc(O)cc1)c1nc(-c2cccnc2)cs1` returned a kinetic solubility of 3.2 µg/mL (≈ 11.3 µM). In turn, `Cc1n(Cc2ccccc2)c2ccccc2[n+]1Cc1ccccc1.[Cl-]` displayed a solubility (kinetic) of 51.9 µg/mL.

Molecule `CCNC(=S)N1CCn2cccc2C1c1cccnc1` (stereo not drawn) gave a solubility (kinetic) of 41 µg/mL (≈ 143 µM). As for `CCN(CC)C(=O)c1ccc(-c2nnc(OC)c3ccccc23)cc1`, the figure is over 50.3 µg/mL. In turn, `Cl.O=C(Nc1ncccc1Cl)c1ccc2c(c1)OCCO2` yielded a solubility (kinetic) of 37 µg/mL.

Molecule `Cc1cccc(NS(=O)(=O)c2ccc3c(c2)CCC(=O)N3)c1` returned a kinetic solubility of over 47.5 µg/mL. Consider `CC(=O)N(c1nc(CCl)cs1)c1cccc(C)c1C`, for which the kinetic solubility is over 44.2 µg/mL.

In turn, `COc1ccc(CN2CCS(=O)(=O)CC2)cc1OC` registered a solubility (kinetic) of over 42.8 µg/mL.

`O=C1CCN(C(=S)NCCc2ccccc2)CC1` came in with a solubility (kinetic) of over 39.4 µg/mL. As for `O=C(NCCCCc1ccccc1)c1ccccc1Cl`, the figure is over 43.2 µg/mL; as for `O=C(Nc1nc(-c2cccnc2)cs1)c1ccc([N+](=O)[O-])cc1`, 3.2 µg/mL (≈ 9.81 µM). `O=C(NCCNC(=O)c1ccccc1[N+](=O)[O-])c1ccccc1[N+](=O)[O-]` came in with a kinetic solubility of 11.4 µg/mL (≈ 31.8 µM). In turn, `O=C(c1[nH]ncc1[N+](=O)[O-])N1CCOCC1` showed a solubility (kinetic) of over 33.9 µg/mL. Take `O=C(Nc1ccccc1)c1cc(S(=O)(=O)Nc2cccnc2)ccc1Cl`: the kinetic solubility is over 58.2 µg/mL.

`COc1cccc(NC(=O)CCN2CCOCC2)c1.Cl` had a solubility (kinetic) of over 45.1 µg/mL. In the case of `O=C(NCCOCc1ccccc1)C(c1ccccc1)c1ccccc1` it was 23.3 µg/mL (≈ 67.4 µM). `CC(C)OC(=O)NCCOC(=O)Nc1ccc(Cl)cc1` displayed a solubility (kinetic) of 36.5 µg/mL (≈ 121 µM). As for `O=S(=O)(NCCCCNS(=O)(=O)c1ccc(F)cc1)c1ccc(F)cc1`, the figure is 0.7 µg/mL (≈ 1.73 µM).
